# Test results: PubChem BioAssay (NCI)
# “And” between values parts separate entries of the source, which are not always exact repeats. Identical values can stand only once.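 A five-concentration, 48-hour dose response in 96-well plates underlies each endpoint, interpolated linearly between surrounding concentrations. Here, GI50 denotes the concentration required for 50% inhibition of growth. At the TGI there is no net growth.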 Where a SMILES comes first, the peptide text is derived from it. [ ]: non-standard residue; d: D form. The star is where a group is joined. ξ: configuration not given here. dIva = CC[C@@](C)(N)C(=O)O; Aib = CC(C)(N)C(=O)O; ξP = O=C(O)C1CCCN1; βAla = NCCC(=O)O; X5 = OCN*
# Assays:
# Experiment in all cases: NCI-60 cell line screen, 48 h
# UACC-257 melanoma = system: UACC-257 melanoma
# NCI-H23 lung = system: NCI-H23 lung
# IGROV1 ovarian = system: IGROV1 ovarian
# SNB-19 CNS = system: SNB-19 CNS
# OVCAR-5 ovarian = system: OVCAR-5 ovarian
# SN12C renal = system: SN12C renal
# CAKI-1 renal = system: CAKI-1 renal
# SF-295 CNS = system: SF-295 CNS
# NCI-H460 lung = system: NCI-H460 lung
# SNB-75 CNS = system: SNB-75 CNS
SMILES,GI50 (UACC-257 melanoma),TGI (UACC-257 melanoma),GI50 (NCI-H23 lung),TGI (NCI-H23 lung),GI50 (IGROV1 ovarian),TGI (IGROV1 ovarian),GI50 (SNB-19 CNS),TGI (SNB-19 CNS),GI50 (OVCAR-5 ovarian),TGI (OVCAR-5 ovarian),GI50 (SN12C renal),TGI (SN12C renal),GI50 (CAKI-1 renal),TGI (CAKI-1 renal),GI50 (SF-295 CNS),TGI (SF-295 CNS),GI50 (NCI-H460 lung),TGI (NCI-H460 lung),GI50 (SNB-75 CNS),TGI (SNB-75 CNS)
COC(=O)C1=C(O)C(C(=O)OC)[C@@]2(O)[C@@H](C(=O)OC)C(c3ccccc3Cl)C[C@@H]1[C@@H]2C(=O)OC (stereo partly specified),15.9 µM,38.8 µM,9.79 µM,23.3 µM,3.52 µM,13 µM,16.2 µM,39.5 µM,15 µM,32.4 µM,3.96 µM,19.8 µM,3.47 µM,11.2 µM,7.05 µM,23.8 µM,10.7 µM,> 100 µM,,
CC1CC2(C)CC(=O)C1C1C(=O)N(CCN3CCOCC3)C(=O)C12 (stereo unspecified),> 100 µM,> 100 µM,> 100 µM,> 100 µM,> 100 µM,> 100 µM,> 100 µM,> 100 µM,> 100 µM,> 100 µM,> 100 µM,> 100 µM,> 100 µM,> 100 µM,> 100 µM,> 100 µM,,,> 100 µM,> 100 µM
CC[C@@](C)(NC(=O)[C@H](C)NC(=O)CCNC(=O)C(C)(C)NC(=O)[C@H](C)NC(=O)[C@@H]1CCCN1C(=O)[C@@](C)(CC)NC(=O)[C@H](Cc1ccccc1)NC(=O)C1CCCN1C(=O)C(C)(C)NC(=O)C1CCCN1C(=O)C(C)(C)NC(C)=O)C(=O)NCCC(=O)N[C@@H](CC(C)C)C(=O)NC(C)(C)C(=O)NCCC(=O)N[C@@H](CC(C)C)C(=O)NC(C)(C)C(=O)NC(C)(C)C(=O)N[C@@H](CC(C)C)C(=O)NCCC(=O)NCO (stereo partly specified) (Ac-[Aib][ξP][Aib][ξP]F[dIva]PA[Aib][βAla]A[dIva][βAla]L[Aib][βAla]L[Aib][Aib]L[βAla]-X5),0.0579 µM,0.21 µM,0.088 µM,0.32 µM,,,0.0952 µM,0.304 µM,0.197 µM,0.422 µM,0.119 µM,0.373 µM,0.231 µM,0.448 µM,0.0539 µM,0.213 µM,0.144 µM,0.381 µM,0.0608 µM,0.307 µM
O=C(Nc1ccc(N2CCNCC2)cn1)c1[nH]ncc1Nc1ncnc2sc3c(c12)CCC3,16.6 µM,41.2 µM,2.21 µM,6.32 µM,,,,,,,2 µM,4.59 µM,1.4 µM,3.26 µM,4.31 µM,23.9 µM,1.58 µM,3.48 µM,1.6 µM,4.04 µM
COc1ccc([Se]c2ccc(OC)cc2)cc1,,> 100 µM,,> 100 µM,,> 100 µM,,> 100 µM,,,,> 100 µM,,> 100 µM,,> 100 µM,,> 100 µM,,96.8 µM
C=C1CC(CC(=O)C(C)CC2CC(=C)C(=O)O2)OC1=O (stereo unspecified),,30.7 µM,,35.8 µM,,> 100 µM,,> 100 µM,,> 100 µM,,34.1 µM,,,,> 100 µM,,> 100 µM,,> 100 µM
Nc1cc(N)c2nc(-c3ccccc3)c(Oc3ccc(Cl)c(Cl)c3)nc2c1,28.5 µM,87.2 µM,15.6 µM,39.9 µM,11.4 µM,32.2 µM,20.9 µM,52.5 µM,25.4 µM,58.3 µM,14.5 µM,31.4 µM,14.5 µM,35.9 µM,13.9 µM,31 µM,18.4 µM,71.4 µM,,
CCN(CC)c1ccc(N=C2C=CC(=C(C#N)C#N)c3ccccc32)c(C)c1,,5.78 µM,,3.33 µM,,8.86 µM,,13.1 µM,,,,7.86 µM,,5.4 µM,,5.66 µM,,8.41 µM,,5.69 µM
N#CC1([N+](=O)[O-])C=C1c1ccccc1 (stereo unspecified),,> 100 µM,,> 100 µM,,> 100 µM,,> 100 µM,,> 100 µM,,> 100 µM,,> 100 µM,,> 100 µM,,> 100 µM,,
CN/N=C(/CC(=O)c1sc(NNC(C)=O)nc1C)C(=O)Nc1ccc(OC)cc1OC,,> 100 µM,,> 100 µM,,> 100 µM,,> 100 µM,,> 100 µM,,> 100 µM,,> 100 µM,,> 100 µM,,> 100 µM,,
O=S1(=O)C=C(c2ccccc2)C(c2ccccc2)=C1,1.52 µM,2.96 µM,1.86 µM,3.93 µM,,,1.98 µM,4.63 µM,1.69 µM,3.14 µM,1.79 µM,3.92 µM,1.16 µM,2.63 µM,2.06 µM,6.3 µM,1.88 µM,4.23 µM,1.33 µM,2.6 µM
Cc1c(C(=O)Nc2ccc(Cl)cc2)nc(N)nc1-c1cccc(Cl)c1,,> 100 µM,,> 100 µM,,> 100 µM,,> 100 µM,,> 100 µM,,> 100 µM,,> 100 µM,,> 100 µM,,> 100 µM,,
COc1ccc(-c2cc(=O)c3cccnc3[nH]2)cc1,,> 100 µM,,> 100 µM,,> 100 µM,,> 100 µM,,> 100 µM,,> 100 µM,,> 100 µM,65 µM,> 100 µM,26.4 µM,91.4 µM,,
CCC12C=CCN3CCC4(C(=C(C(=O)OC)C1)Nc1ccccc14)[C@H]32 (stereo partly specified),,> 100 µM,,93.6 µM,,> 100 µM,,75 µM,,> 100 µM,,,,> 100 µM,,92.6 µM,,41.9 µM,,69 µM
NNC(=O)N/N=C1/C(=O)N(c2ccc(Cl)c(Cl)c2)C(=O)C(=O)C1c1nc2ccccc2o1 (stereo unspecified),,> 100 µM,,> 100 µM,,> 100 µM,,> 100 µM,,> 100 µM,,> 100 µM,,> 100 µM,,> 100 µM,,,,> 100 µM
CC(=O)Nc1cc(CN2CCCCC2)c(O)c2ncccc12,,88.7 µM,,> 100 µM,,> 100 µM,,> 100 µM,,> 100 µM,,70.9 µM,,> 100 µM,,> 100 µM,,36.9 µM,,
CCCCCC/C(CC(=O)CCC(=O)NCCc1ccccc1)=N\NC(=O)c1ccc2ccccc2c1O,,> 100 µM,,> 100 µM,,> 100 µM,,> 100 µM,,54.2 µM,,> 100 µM,,,,> 100 µM,,> 100 µM,,> 100 µM
O=C(N/N=C/c1cccc(O)c1)c1ccc(C(F)(F)F)nc1Nc1cccc(C(F)(F)F)c1,2.36 µM,8.44 µM,1.62 µM,5.07 µM,2.65 µM,11.6 µM,2.51 µM,12 µM,1.63 µM,5.67 µM,1.79 µM,6.34 µM,1.17 µM,3 µM,,,1.74 µM,4.52 µM,1.58 µM,6.03 µM
C[C@H](CCCOS(C)(=O)=O)[C@H]1CC[C@H]2[C@@H]3CC[C@@H]4C[C@H](OS(C)(=O)=O)CC[C@]4(C)[C@H]3CC[C@]12C,816 µM,> 2500 µM,286 µM,,518 µM,1450 µM,929 µM,> 2500 µM,391 µM,> 2500 µM,799 µM,,954 µM,,532 µM,1340 µM,597 µM,2080 µM,,
NC(=S)N=Nc1c(O)[nH]c2ccccc12,804 µM,> 1000 µM,,,66.7 µM and 162 µM,477 µM,262 µM,722 µM,,,154 µM,331 µM,32 µM and 73.4 µM,251 µM,197 µM,498 µM,185 µM,> 1000 µM,91.7 µM and 174 µM,419 µM
CC(=O)OC1(C#N)CC2OC1C1NC21 (stereo unspecified),,,,> 100 µM,,> 100 µM,,> 100 µM,,> 100 µM,,> 100 µM,,> 100 µM,,,,> 100 µM,,> 100 µM
CCCNC(=O)Nc1ccc2c(c1)Cc1cc(N(CCCl)CCCl)ccc1-2,,> 100 µM,,> 100 µM,,50.6 µM,,94.8 µM,,> 100 µM,,> 100 µM,,> 100 µM,,44.2 µM,,> 100 µM,,
COc1ccc2c(c1)O/C(=C\c1ccc([N+](=O)[O-])s1)C2=O,,> 100 µM,1.33 µM,5.92 µM,1.14 µM,,> 22 µM,> 100 µM,,,2.28 µM,> 100 µM,,,,> 47.4 µM,2.32 µM,> 100 µM,2.36 µM,39.2 µM
OCC(O)C(OC1OC(CO)C(O)C(O)C1O)c1nn(-c2ccc(Cl)cc2)c2nc3cc(Cl)ccc3nc12 (stereo unspecified),,> 100 µM,,> 100 µM,,,,> 100 µM,,> 100 µM,,> 100 µM,,,,> 100 µM,,> 100 µM,,> 100 µM
O=C(OCc1ccccc1)c1ccccc1-c1c2ccc(=O)cc-2oc2cc(OCc3ccccc3)ccc12,,67 µM,,49.6 µM,,44.3 µM,,> 100 µM,,> 100 µM,,74.4 µM,,58.5 µM,,80.3 µM,,35.8 µM,,
